What was measured:
Assay in all cases: biochemical
Design in all cases: KINOMEscan competition binding panel, per cent of control
Conditions in all cases: read-out: %Ctrl @ 2800nM
IRAK3 = IRAK3 (Homo sapiens, UniProt Q9Y616)
How it was run: (§1)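 Competition binding panel (KINOMEscan) across 450 human kinases and disease-relevant mutants, run to the contractor's standard protocol. Values are % control: (test signal − positive control signal)/(negative control signal − positive control signal) × 100, with lower values indicating stronger binding.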

PIK3CA = PIK3CA (Homo sapiens, UniProt P42336)
How it was run: as §1

TBK1 = TBK1 (Homo sapiens, UniProt Q9UHD2)
TBK1, sequence (Q9UHD2 whole entry): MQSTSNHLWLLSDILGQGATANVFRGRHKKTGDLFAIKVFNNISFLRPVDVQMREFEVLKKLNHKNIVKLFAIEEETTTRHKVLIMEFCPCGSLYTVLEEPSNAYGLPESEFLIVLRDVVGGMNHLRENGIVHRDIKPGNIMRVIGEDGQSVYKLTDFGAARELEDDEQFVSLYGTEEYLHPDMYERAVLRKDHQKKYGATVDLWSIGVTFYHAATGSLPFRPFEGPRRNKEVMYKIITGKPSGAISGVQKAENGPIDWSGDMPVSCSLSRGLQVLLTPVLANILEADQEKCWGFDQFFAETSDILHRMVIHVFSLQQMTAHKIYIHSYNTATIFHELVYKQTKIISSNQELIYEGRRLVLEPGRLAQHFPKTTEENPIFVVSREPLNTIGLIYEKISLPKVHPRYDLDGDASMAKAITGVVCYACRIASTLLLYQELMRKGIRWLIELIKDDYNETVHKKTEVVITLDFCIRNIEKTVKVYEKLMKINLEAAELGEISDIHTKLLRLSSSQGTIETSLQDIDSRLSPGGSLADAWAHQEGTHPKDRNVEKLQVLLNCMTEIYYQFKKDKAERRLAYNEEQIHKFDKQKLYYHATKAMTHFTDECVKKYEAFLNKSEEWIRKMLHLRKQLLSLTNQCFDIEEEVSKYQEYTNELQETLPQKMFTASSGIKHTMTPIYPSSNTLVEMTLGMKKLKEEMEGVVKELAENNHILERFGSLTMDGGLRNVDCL
How it was run: as §1

NEK9 = NEK9 (Homo sapiens, UniProt Q8TD19)
How it was run: as §1

EPHA1 = EPHA1 (Homo sapiens, UniProt P21709)
EPHA1, sequence (P21709 whole entry): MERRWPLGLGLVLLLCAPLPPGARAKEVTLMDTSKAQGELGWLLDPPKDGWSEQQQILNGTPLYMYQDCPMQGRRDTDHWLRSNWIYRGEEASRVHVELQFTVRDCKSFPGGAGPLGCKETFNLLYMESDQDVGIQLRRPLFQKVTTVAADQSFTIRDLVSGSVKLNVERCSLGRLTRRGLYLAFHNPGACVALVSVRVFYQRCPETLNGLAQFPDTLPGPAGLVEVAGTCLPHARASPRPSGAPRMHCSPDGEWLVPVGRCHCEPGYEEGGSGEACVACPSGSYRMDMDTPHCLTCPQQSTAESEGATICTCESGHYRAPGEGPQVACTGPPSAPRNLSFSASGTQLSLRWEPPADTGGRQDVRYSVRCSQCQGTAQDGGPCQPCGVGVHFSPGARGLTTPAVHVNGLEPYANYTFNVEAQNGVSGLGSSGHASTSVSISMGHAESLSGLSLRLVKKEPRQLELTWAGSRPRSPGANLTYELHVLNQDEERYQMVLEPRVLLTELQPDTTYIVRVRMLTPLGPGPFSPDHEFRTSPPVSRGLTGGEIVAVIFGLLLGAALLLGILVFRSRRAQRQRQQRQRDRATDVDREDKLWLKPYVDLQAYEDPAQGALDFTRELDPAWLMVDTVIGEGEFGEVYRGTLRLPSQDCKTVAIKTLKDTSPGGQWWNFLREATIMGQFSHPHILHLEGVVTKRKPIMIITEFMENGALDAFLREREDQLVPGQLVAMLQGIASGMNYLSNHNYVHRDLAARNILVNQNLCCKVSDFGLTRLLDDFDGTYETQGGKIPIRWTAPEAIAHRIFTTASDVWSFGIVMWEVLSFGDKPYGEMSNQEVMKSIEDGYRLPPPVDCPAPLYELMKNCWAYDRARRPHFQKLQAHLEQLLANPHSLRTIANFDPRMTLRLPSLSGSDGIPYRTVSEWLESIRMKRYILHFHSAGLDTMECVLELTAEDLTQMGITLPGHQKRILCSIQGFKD
How it was run: as §1

PRKX = PRKX (Homo sapiens, UniProt P51817)
How it was run: as §1

MLK3 = molecular target: T1, MLK3 (Homo sapiens, UniProt Q16584)
T1 construct: gene MAP3K11
How it was run: as §1

DYRK2 = DYRK2 (Homo sapiens, UniProt Q92630)
DYRK2, sequence (Q92630 whole entry): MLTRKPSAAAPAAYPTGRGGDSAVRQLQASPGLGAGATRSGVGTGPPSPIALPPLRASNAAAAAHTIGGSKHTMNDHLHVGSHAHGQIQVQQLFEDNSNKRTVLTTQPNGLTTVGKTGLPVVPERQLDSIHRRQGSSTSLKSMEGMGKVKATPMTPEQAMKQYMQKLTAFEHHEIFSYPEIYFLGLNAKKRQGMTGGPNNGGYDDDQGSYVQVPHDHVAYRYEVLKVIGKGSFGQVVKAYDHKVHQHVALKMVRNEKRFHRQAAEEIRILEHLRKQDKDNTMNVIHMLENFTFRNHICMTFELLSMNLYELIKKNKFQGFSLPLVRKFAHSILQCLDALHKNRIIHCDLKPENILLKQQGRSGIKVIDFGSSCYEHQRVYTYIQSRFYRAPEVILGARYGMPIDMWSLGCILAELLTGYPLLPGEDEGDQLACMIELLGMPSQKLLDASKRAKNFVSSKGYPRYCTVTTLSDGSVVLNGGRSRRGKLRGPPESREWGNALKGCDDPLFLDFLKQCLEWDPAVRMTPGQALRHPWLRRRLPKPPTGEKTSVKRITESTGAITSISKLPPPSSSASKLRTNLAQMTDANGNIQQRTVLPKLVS
How it was run: as §1

TAOK3 = TAOK3 (Homo sapiens, UniProt Q9H2K8)
TAOK3, sequence (Q9H2K8 whole entry): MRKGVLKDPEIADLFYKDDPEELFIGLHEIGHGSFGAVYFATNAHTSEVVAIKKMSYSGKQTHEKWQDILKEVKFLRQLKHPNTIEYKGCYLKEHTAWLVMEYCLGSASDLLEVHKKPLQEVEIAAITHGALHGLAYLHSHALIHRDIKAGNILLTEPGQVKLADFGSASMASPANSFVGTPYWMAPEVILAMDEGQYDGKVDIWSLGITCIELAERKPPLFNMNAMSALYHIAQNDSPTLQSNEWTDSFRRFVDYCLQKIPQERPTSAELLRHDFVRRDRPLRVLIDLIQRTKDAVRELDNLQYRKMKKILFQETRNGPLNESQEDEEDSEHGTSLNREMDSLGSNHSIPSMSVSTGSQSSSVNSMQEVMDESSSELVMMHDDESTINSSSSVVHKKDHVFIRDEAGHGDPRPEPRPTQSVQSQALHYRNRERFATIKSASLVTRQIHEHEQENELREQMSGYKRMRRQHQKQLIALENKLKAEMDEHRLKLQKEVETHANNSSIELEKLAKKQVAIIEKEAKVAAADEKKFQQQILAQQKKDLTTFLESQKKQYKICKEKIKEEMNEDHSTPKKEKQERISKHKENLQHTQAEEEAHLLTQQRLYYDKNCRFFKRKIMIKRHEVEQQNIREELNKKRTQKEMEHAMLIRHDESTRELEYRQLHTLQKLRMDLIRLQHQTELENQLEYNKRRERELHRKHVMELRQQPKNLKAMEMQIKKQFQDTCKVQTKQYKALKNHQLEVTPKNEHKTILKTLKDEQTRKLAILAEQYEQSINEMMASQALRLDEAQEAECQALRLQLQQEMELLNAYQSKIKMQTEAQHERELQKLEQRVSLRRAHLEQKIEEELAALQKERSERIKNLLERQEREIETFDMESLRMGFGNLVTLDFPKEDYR
How it was run: as §1

BUB1 = BUB1 (Homo sapiens, UniProt O43683)
How it was run: as §1

MST1R = MST1R (Homo sapiens, UniProt Q04912)
How it was run: as §1

[1] = molecular target: T2, JAK1(JH1domain-catalytic) (Homo sapiens, UniProt P23458)
T2 construct: JH1domain-catalytic
How it was run: as §1

TAOK1 = TAOK1 (Homo sapiens, UniProt Q7L7X3)
How it was run: as §1

NEK7 = NEK7 (Homo sapiens, UniProt Q8TDX7)
How it was run: as §1

JNK3 = molecular target: T3, JNK3 (Homo sapiens, UniProt P53779)
T3 construct: gene MAPK10
T3 sequence (P53779 whole entry): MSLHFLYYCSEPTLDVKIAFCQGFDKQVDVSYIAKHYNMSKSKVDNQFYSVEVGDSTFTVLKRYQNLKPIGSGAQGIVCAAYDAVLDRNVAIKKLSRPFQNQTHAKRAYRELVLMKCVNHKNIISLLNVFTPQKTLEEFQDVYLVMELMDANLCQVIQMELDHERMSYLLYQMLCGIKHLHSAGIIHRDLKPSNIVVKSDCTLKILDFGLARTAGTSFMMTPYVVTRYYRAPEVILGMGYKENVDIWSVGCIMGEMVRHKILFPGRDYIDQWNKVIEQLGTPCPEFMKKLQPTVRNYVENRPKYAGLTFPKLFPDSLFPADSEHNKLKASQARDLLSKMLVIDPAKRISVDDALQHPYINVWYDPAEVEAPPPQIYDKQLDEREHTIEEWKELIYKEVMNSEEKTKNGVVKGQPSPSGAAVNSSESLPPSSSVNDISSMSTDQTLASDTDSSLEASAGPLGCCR
How it was run: as §1

PRKD3 = PRKD3 (Homo sapiens, UniProt O94806)
How it was run: as §1

[2] = molecular target: T4, RPS6KA5(Kin.Dom.2-C-terminal) (Homo sapiens, UniProt O75582)
T4 construct: Kin.Dom.2-C-terminal
T4 sequence (O75582 whole entry): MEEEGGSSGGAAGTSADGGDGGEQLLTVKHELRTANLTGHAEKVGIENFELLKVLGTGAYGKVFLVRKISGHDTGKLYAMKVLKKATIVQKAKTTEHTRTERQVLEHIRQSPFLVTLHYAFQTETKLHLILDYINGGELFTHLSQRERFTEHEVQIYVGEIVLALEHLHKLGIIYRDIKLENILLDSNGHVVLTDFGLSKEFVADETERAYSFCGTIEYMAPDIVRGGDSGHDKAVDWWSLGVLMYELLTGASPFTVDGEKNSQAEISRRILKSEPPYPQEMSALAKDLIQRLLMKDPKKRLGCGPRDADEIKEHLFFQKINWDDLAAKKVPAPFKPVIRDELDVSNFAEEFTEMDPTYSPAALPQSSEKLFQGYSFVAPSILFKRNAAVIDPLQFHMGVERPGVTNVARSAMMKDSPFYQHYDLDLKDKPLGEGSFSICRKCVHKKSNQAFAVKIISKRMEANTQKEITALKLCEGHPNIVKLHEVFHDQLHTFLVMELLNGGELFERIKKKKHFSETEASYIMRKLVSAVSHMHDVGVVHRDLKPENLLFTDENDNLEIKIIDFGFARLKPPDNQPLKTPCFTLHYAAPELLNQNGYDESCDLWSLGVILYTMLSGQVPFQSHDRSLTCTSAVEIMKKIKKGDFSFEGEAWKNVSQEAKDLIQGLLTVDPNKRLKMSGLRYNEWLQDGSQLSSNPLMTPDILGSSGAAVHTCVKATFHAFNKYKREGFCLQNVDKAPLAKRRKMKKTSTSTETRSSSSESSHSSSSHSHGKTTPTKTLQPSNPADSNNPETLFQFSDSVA
How it was run: as §1

BRSK1 = BRSK1 (Homo sapiens, UniProt Q8TDC3)
How it was run: as §1

[3] = molecular target: T5, RPS6KA4(Kin.Dom.2-C-terminal) (Homo sapiens, UniProt O75676)
T5 construct: Kin.Dom.2-C-terminal
How it was run: as §1

CASK = CASK (Homo sapiens, UniProt O14936)
How it was run: as §1

KIT(D816H) = KIT(D816H) (Homo sapiens, UniProt P10721, D816H)
How it was run: as §1

MYLK4 = MYLK4 (Homo sapiens, UniProt Q86YV6)
How it was run: as §1

SRPK1 = SRPK1 (Homo sapiens, UniProt Q96SB4)
How it was run: as §1

ACVRL1 = ACVRL1 (Homo sapiens, UniProt P37023)
How it was run: as §1

PIK3CA(H1047Y) = PIK3CA(H1047Y) (Homo sapiens, UniProt P42336, H1047Y)
How it was run: as §1

PFTK1 = molecular target: T6, PFTK1 (Homo sapiens, UniProt O94921)
T6 construct: gene CDK14
How it was run: as §1

IRAK3, sequence (Q9Y616 whole entry): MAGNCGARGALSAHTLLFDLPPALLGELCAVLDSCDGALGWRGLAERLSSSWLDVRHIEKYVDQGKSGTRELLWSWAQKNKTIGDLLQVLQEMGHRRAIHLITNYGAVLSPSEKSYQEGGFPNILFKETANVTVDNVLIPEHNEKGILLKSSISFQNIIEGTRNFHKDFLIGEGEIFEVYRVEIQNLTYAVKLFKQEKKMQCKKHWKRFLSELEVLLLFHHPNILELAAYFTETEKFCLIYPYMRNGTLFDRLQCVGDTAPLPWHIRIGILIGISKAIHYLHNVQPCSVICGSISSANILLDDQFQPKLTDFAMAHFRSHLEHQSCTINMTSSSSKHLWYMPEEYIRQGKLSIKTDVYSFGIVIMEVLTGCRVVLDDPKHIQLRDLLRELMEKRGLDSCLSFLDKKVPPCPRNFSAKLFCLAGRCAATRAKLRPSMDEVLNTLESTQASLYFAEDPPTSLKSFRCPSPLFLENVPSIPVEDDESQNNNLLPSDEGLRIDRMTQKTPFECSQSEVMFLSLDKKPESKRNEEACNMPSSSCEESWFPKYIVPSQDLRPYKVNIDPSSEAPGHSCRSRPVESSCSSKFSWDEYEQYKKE

[O-][S@@+](Cc1cncs1)C(c1ccccc1)c1ccccc1 [S-CE-123, (S)-5-((Benzhydrylsulfinyl)Methyl)Thiazole]
remaining binding at 2.8 µM (IRAK3): 96% | remaining binding at 2.8 µM (PIK3CA): 80% | remaining binding at 2.8 µM (TBK1): 100% | remaining binding at 2.8 µM (NEK9): 100% | remaining binding at 2.8 µM (EPHA1): 96% | remaining binding at 2.8 µM (PRKX): 100% | remaining binding at 2.8 µM (MLK3): 100% | remaining binding at 2.8 µM (DYRK2): 86% | remaining binding at 2.8 µM (TAOK3): 91% | remaining binding at 2.8 µM (BUB1): 100% | remaining binding at 2.8 µM (MST1R): 93% | remaining binding at 2.8 µM [1]: 93% | remaining binding at 2.8 µM (TAOK1): 100% | remaining binding at 2.8 µM (NEK7): 100% | remaining binding at 2.8 µM (JNK3): 74% | remaining binding at 2.8 µM (PRKD3): 96% | remaining binding at 2.8 µM [2]: 85% | remaining binding at 2.8 µM (BRSK1): 100% | remaining binding at 2.8 µM [3]: 99% | remaining binding at 2.8 µM (CASK): 82% | remaining binding at 2.8 µM (KIT(D816H)): 100% | remaining binding at 2.8 µM (MYLK4): 89% | remaining binding at 2.8 µM (SRPK1): 92% | remaining binding at 2.8 µM (ACVRL1): 84% | remaining binding at 2.8 µM (PIK3CA(H1047Y)): 100% | remaining binding at 2.8 µM (PFTK1): 92%

From article PMC10046369, “Low-Affinity/High-Selectivity Dopamine Transport Inhibition Sufficient to Rescue Cognitive Functions in the Aging Rat” (Biomolecules, 2023)
